# Assay results published in patent publication US20190240225A1, “COMBINATION OF A BCL-2 INHIBITOR AND A MCL-1 INHIBITOR, USES AND PHARMACEUTICAL COMPOSITIONS THEREOF” (LES LABORATOIRES SERVIER, priority 2016, published 2019).
# Assays:
# Format in all cases: cell-based
# NALM-21 = assay: CellTiterGlo viability, B-ALL cell line; details: single agent, 72 h
# Experimental: (§1) In addition, all media contained penicillin (100 IU/ml), streptomycin (100 μg/ml) and L-glutamine (2 mM). Cell lines were cultured at 37° C. in a humidified atmosphere containing 5% CO2 and expanded in T-150 flasks. In all cases cells were thawed from frozen stocks, expanded through ≥1 passage using appropriate dilutions, counted and assessed for viability using a CASY cell counter prior to plating 150 ul/well at the densities indicated in Table 9 into 96-well plates. All cell lines were determined to be free of mycoplasma contamination in-house.
# (§2) Stock solutions of compounds were prepared at a concentration of 5 mM in DMSO and stored at −20° C. In order to analyse the activity of the compounds as single agents, cells were seeded and treated with nine 2-fold serial dilutions of each compound dispensed individually directly into the cell assay plates. Effects of the compounds on cell viability were assessed after 3 days of incubation at 37° C./5% CO2 by quantification of cellular ATP levels using CellTiterGlo at 75 μL reagent/well. All the conditions were tested in triplicates. Luminescence was quantified on a multipurpose plate reader. Single agent IC50s were calculated using standard four-parametric curve fitting. IC50 is defined as the compound concentration at which the CTG signal is reduced to 50% of that measured for the vehicle (DMSO) control.
# (§3) In order to analyse the activity of the compounds in combination, cells were seeded and treated with seven or eight 3.16-fold serial dilutions of each compound dispensed, either individually or in all possible permutations in a checkerboard fashion, directly into the cell assay plates as indicated in FIG. 1. Effects of the single agents as well as their checkerboard combinations on cell viability were assessed after 3 days of incubation at 37° C./5% CO2 by quantification of cellular ATP levels using CellTiterGlo at 75 μL reagent/well. For B-ALL cell lines, two independent experiments, each one performed in duplicates, were performed. For T-ALL cell lines, one experiment performed in triplicate was performed. Luminescence was quantified on a multipurpose plate reader.
# (§4) Potential synergistic interactions between compound combinations were assessed using the Excess Inhibition 2D matrix according to the Loewe additivity model and are reported as Synergy Score (Lehar et al, Nat Biotechnol. 2009 July; 27(7): 659-666). All calculations were performed using Chalice TM Bioinformatics Software available in Horizon website. The doubling time indicated in Table 9 is the mean of the doubling time obtained in the different passages (in T-150 flasks) performed from the thawing of the cells to their seeding in the 96-well plates.
# TOM-1 = assay: CellTiterGlo viability, B-ALL cell line; details: single agent, 72 h
# Experimental: as §1, §2, §3, §4
# BALL-1 = assay: CellTiterGlo viability, B-ALL cell line; details: single agent, 72 h
# Experimental: as §1, §2, §3, §4
# SUP-B15 = assay: CellTiterGlo viability, B-ALL cell line; details: single agent, 72 h
# Experimental: as §1, §2, §3, §4
# RS4;11 = assay: CellTiterGlo viability, B-ALL cell line; details: single agent, 72 h
# Experimental: as §1, §2, §3, §4
# TANOUE = assay: CellTiterGlo viability, B-ALL cell line; details: single agent, 72 h
# Experimental: as §1, §2, §3, §4
# Kasumi-2 = assay: CellTiterGlo viability, B-ALL cell line; details: single agent, 72 h
# Experimental: as §1, §2, §3, §4
# MV4;11 = assay: CellTiterGlo viability, AML cell line; details: single agent, 3 days
# Experimental: (§5) In addition, all media contained penicillin (100 IU/ml), streptomycin (100 μg/ml) and L-glutamine (2 mM).
# as §1, with “Cell” for “In addition, all media contained penicillin (100 IU/ml), streptomycin (100 μg/ml) and L-glutamine (2 mM). Cell”, “Table 1” for “Table 9”
# (§6) Stock solutions of compounds were prepared at a concentration of 5 mM in DMSO and stored at −20° C.
# as §2, with “In” for “Stock solutions of compounds were prepared at a concentration of 5 mM in DMSO and stored at −20° C. In”, “experiments” for “conditions”, “performed” for “tested”
# as §3, with “9.” for “1.”, “Two” for “For B-ALL cell lines, two”, “performed.” for “performed. For T-ALL cell lines, one experiment performed in triplicate was performed.”
# (§7) Potential synergistic interactions between compound combinations were assessed using the Excess Inhibition 2D matrix according to the Loewe additivity model and are reported as Synergy Score (Lehar et al, Nat Biotechnol. 2009 July; 27(7): 659-666). All calculations were performed using Clalice™ Bioinformatics Software.
# EOL-1 = assay: CellTiterGlo viability, AML cell line; details: single agent, 3 days
# Experimental: as §5
# as §1, with “Cell” for “In addition, all media contained penicillin (100 IU/ml), streptomycin (100 μg/ml) and L-glutamine (2 mM). Cell”, “Table 1” for “Table 9”
# as §6
# as §2, with “In” for “Stock solutions of compounds were prepared at a concentration of 5 mM in DMSO and stored at −20° C. In”, “experiments” for “conditions”, “performed” for “tested”
# as §3, with “9.” for “1.”, “Two” for “For B-ALL cell lines, two”, “performed.” for “performed. For T-ALL cell lines, one experiment performed in triplicate was performed.”
# as §7
# HL-60 = assay: CellTiterGlo viability, AML cell line; details: single agent, 3 days
# Experimental: as §5
# as §1, with “Cell” for “In addition, all media contained penicillin (100 IU/ml), streptomycin (100 μg/ml) and L-glutamine (2 mM). Cell”, “Table 1” for “Table 9”
# as §6
# as §2, with “In” for “Stock solutions of compounds were prepared at a concentration of 5 mM in DMSO and stored at −20° C. In”, “experiments” for “conditions”, “performed” for “tested”
# as §3, with “9.” for “1.”, “Two” for “For B-ALL cell lines, two”, “performed.” for “performed. For T-ALL cell lines, one experiment performed in triplicate was performed.”
# as §7
# KG1a = assay: CellTiterGlo viability, AML cell line; details: single agent, 3 days
# Experimental: as §5
# as §1, with “Cell” for “In addition, all media contained penicillin (100 IU/ml), streptomycin (100 μg/ml) and L-glutamine (2 mM). Cell”, “Table 1” for “Table 9”
# as §6
# as §2, with “In” for “Stock solutions of compounds were prepared at a concentration of 5 mM in DMSO and stored at −20° C. In”, “experiments” for “conditions”, “performed” for “tested”
# as §3, with “9.” for “1.”, “Two” for “For B-ALL cell lines, two”, “performed.” for “performed. For T-ALL cell lines, one experiment performed in triplicate was performed.”
# as §7
# Kasumi-1 = assay: CellTiterGlo viability, AML cell line; details: single agent, 3 days
# Experimental: as §5
# as §1, with “Cell” for “In addition, all media contained penicillin (100 IU/ml), streptomycin (100 μg/ml) and L-glutamine (2 mM). Cell”, “Table 1” for “Table 9”
# as §6
# as §2, with “In” for “Stock solutions of compounds were prepared at a concentration of 5 mM in DMSO and stored at −20° C. In”, “experiments” for “conditions”, “performed” for “tested”
# as §3, with “9.” for “1.”, “Two” for “For B-ALL cell lines, two”, “performed.” for “performed. For T-ALL cell lines, one experiment performed in triplicate was performed.”
# as §7
# Nomo-1 = assay: CellTiterGlo viability, AML cell line; details: single agent, 3 days
# Experimental: as §5
# as §1, with “Cell” for “In addition, all media contained penicillin (100 IU/ml), streptomycin (100 μg/ml) and L-glutamine (2 mM). Cell”, “Table 1” for “Table 9”
# as §6
# as §2, with “In” for “Stock solutions of compounds were prepared at a concentration of 5 mM in DMSO and stored at −20° C. In”, “experiments” for “conditions”, “performed” for “tested”
# as §3, with “9.” for “1.”, “Two” for “For B-ALL cell lines, two”, “performed.” for “performed. For T-ALL cell lines, one experiment performed in triplicate was performed.”
# as §7
# PL-21 = assay: CellTiterGlo viability, AML cell line; details: single agent, 3 days
# Experimental: as §5
# as §1, with “Cell” for “In addition, all media contained penicillin (100 IU/ml), streptomycin (100 μg/ml) and L-glutamine (2 mM). Cell”, “Table 1” for “Table 9”
# as §6
# as §2, with “In” for “Stock solutions of compounds were prepared at a concentration of 5 mM in DMSO and stored at −20° C. In”, “experiments” for “conditions”, “performed” for “tested”
# as §3, with “9.” for “1.”, “Two” for “For B-ALL cell lines, two”, “performed.” for “performed. For T-ALL cell lines, one experiment performed in triplicate was performed.”
# as §7
# ML-2 = assay: CellTiterGlo viability, AML cell line
# Experimental: as §5
# as §1, with “Cell” for “In addition, all media contained penicillin (100 IU/ml), streptomycin (100 μg/ml) and L-glutamine (2 mM). Cell”, “Table 1” for “Table 9”
# as §6
# as §2, with “In” for “Stock solutions of compounds were prepared at a concentration of 5 mM in DMSO and stored at −20° C. In”, “experiments” for “conditions”, “performed” for “tested”
# as §3, with “9.” for “1.”, “Two” for “For B-ALL cell lines, two”, “performed.” for “performed. For T-ALL cell lines, one experiment performed in triplicate was performed.”
# as §7
# KG1 = assay: CellTiterGlo viability, AML cell line; details: single agent, 3 days
# Experimental: as §5
# as §1, with “Cell” for “In addition, all media contained penicillin (100 IU/ml), streptomycin (100 μg/ml) and L-glutamine (2 mM). Cell”, “Table 1” for “Table 9”
# as §6
# as §2, with “In” for “Stock solutions of compounds were prepared at a concentration of 5 mM in DMSO and stored at −20° C. In”, “experiments” for “conditions”, “performed” for “tested”
# as §3, with “9.” for “1.”, “Two” for “For B-ALL cell lines, two”, “performed.” for “performed. For T-ALL cell lines, one experiment performed in triplicate was performed.”
# as §7
# MOLM-13 = assay: CellTiterGlo viability, AML cell line; details: single agent, 3 days
# Experimental: as §5
# as §1, with “Cell” for “In addition, all media contained penicillin (100 IU/ml), streptomycin (100 μg/ml) and L-glutamine (2 mM). Cell”, “Table 1” for “Table 9”
# as §6
# as §2, with “In” for “Stock solutions of compounds were prepared at a concentration of 5 mM in DMSO and stored at −20° C. In”, “experiments” for “conditions”, “performed” for “tested”
# as §3, with “9.” for “1.”, “Two” for “For B-ALL cell lines, two”, “performed.” for “performed. For T-ALL cell lines, one experiment performed in triplicate was performed.”
# as §7
# GDM-1 = assay: CellTiterGlo viability, AML cell line; details: single agent, 3 days
# Experimental: as §5
# as §1, with “Cell” for “In addition, all media contained penicillin (100 IU/ml), streptomycin (100 μg/ml) and L-glutamine (2 mM). Cell”, “Table 1” for “Table 9”
# as §6
# as §2, with “In” for “Stock solutions of compounds were prepared at a concentration of 5 mM in DMSO and stored at −20° C. In”, “experiments” for “conditions”, “performed” for “tested”
# as §3, with “9.” for “1.”, “Two” for “For B-ALL cell lines, two”, “performed.” for “performed. For T-ALL cell lines, one experiment performed in triplicate was performed.”
# as §7
structure (smiles),measurement,setting,value
"COc1ccccc1-c1nccc(COc2ccccc2C[C@@H](Oc2ncnc3sc(-c4ccc(F)cc4)c(-c4ccc(OCCN5CCN(C)CC5)c(Cl)c4C)c23)C(=O)O)n1 [Compound 3, (2R)-2-{[(5Sa)-5-{3-chloro-2-methyl-4-[2-(4-methylpiperazin-1-yl)ethoxy]phenyl}-6-(4-fluorophenyl)thieno[2,3-d]pyrimidin-4-yl]oxy}-3-(2-{[2-(2-methoxyphenyl)pyrimidin-4-yl]methoxy}phenyl)propanoic acid]",IC50,NALM-21,12 nM
same,IC50,TOM-1,24 nM
same,IC50,BALL-1,63 nM
same,IC50,SUP-B15,78 nM
same,IC50,RS4;11,79 nM
same,IC50,TANOUE,6540 nM
same,IC50,Kasumi-2,30 nM
same,IC50,MV4;11,1 nM
same,Mean of Max Inh,MV4;11; combination (c) experiment,100.0%
same,IC50,EOL-1,1 nM
same,IC50,HL-60,25 nM
same,IC50,KG1a,2000 nM
same,IC50,Kasumi-1,33 nM
same,IC50,Nomo-1,13 nM
same,IC50,PL-21,65 nM
same,growth inhibition,"ML-2; fifth lowest concentration tested, Compound 4, HCl / Compound 3 experiment",26%
same,IC50,"ML-2; single agent, 3 days",5 nM
same,Mean of Max Inh,"ML-2; single agent, combination (c) experiment, 3 days",100%
same,IC50,KG1,390 nM
same,IC50,MOLM-13,2 nM
same,Mean of Max Inh,MOLM-13; combination (c) experiment,100%
same,IC50,GDM-1,8 nM
same,Mean of Max Inh,GDM-1; combination (c) experiment,100%
